The structures appear in SMILES notation.

Here are results for 87 compounds from a melting point compilation (Tetko et al.; mined from patent text by program, amines drawn as free bases though some values may be those of a salt).

A word on the melting point: it is the temperature, or range, at which the solid turns liquid. Consider `O=c1[nH]c2sc3ccc(Br)cc3c2[nH]c1=O`, for which the melting point was above 320 °C.

For the compound `C[C@H]1[C@H](N)CN1c1cc2c(cc1F)c(=O)c(C(=O)O)cn2C(C)(C)C` (relative stereo), the melting point lay within 225 to 227 °C.

`O=C(O)c1cc(Oc2ccc(Cl)cc2Cl)c(O)cc1Cl` showed a melting point of 192 to 196 °C.

Regarding `CCC(C)(C)C1CC=C(C(=O)O)CC1` (configuration not stated), the melting point fell in the range of 123 to 125 °C.

`COc1ccc(CCCC(O)COc2ccc(OCc3ncc[nH]3)cc2)cc1OC` (configuration not stated) gave a melting point of 129 to 130 °C.

`CCCn1nc2c(N)nc3ccccc3c2c1NCc1ccccc1` registered a melting point of 160 to 161 °C.

Compound `CCOC(=O)c1cnc2c(cnn2CC)c1Cl` gave a melting point of 55 to 60 °C.

Compound `O=C(CCC(=O)c1ccc(CCNS(=O)(=O)c2ccccc2)cc1)Nc1nnn[nH]1` displayed a melting point of 241 to 242 °C.

As to `CCCCNC(=O)Oc1ccccc1`, the melting point lay in the range of 39 to 40 °C.

In turn, `COCCc1nc2c(N)nc3ccccc3c2n1CCCNC(=O)NC1CCCCC1` came in with a melting point of 179 to 180 °C.

In turn, `O=C(N[C@H]1CCN(C(=O)c2cc(C(F)(F)F)cc(C(F)(F)F)c2)[C@H](Cc2ccc(Cl)cc2)C1)c1cc(O)nc2ccccc12` returned a melting point of 222 to 224 °C.

Consider `CCN1CCC2(c3cccc(OC)c3)Cc3[nH]c(C(N)=O)c(C)c3CC2C1` (configuration not stated), for which the melting point lay within 176 to 178 °C.

Regarding `Cc1ccc2c(c1)c(N1CCN(C(=O)c3ccco3)CC1)c(C#N)c(=O)n2Cc1ccccc1`, the melting point is 146 °C.

The compound `Nn1c(C(F)(F)F)cc(-c2ccc(C(F)(F)F)cc2)cc1=S` had a melting point of 156 °C.

`CCc1nn2ccc3oc(C)cc3c2c1CCNC(C)=O` had a melting point of 128 to 129 °C.

In the case of `COc1ccc(C(=O)/C=C/c2ncn(C(c3ccccc3)(c3ccccc3)c3ccccc3)c2C)c2ccccc12`, the melting point was in the range of 235 to 237 °C.

Compound `OC[C@@H](O)[C@@H](c1cccc(Br)c1)N1CCc2cccc(OCc3ccccc3)c21` registered a melting point of 61 to 66 °C.

`CC(C)(C)c1cc(CCC(=O)NCCNc2ccc(C#N)cc2)cc(C(C)(C)C)c1O` returned a melting point of 146 to 148 °C.

For the compound `O=C(Nc1ccccc1-c1ccccc1)OCCCC(=O)c1ccccc1`, the melting point is 87 to 89 °C.

For `CCN(C)C(=O)c1nn(-c2ccc(Cl)cc2)c(=O)c2c(N)scc12`, the melting point lay in the range of 148 to 150 °C.

The compound `O=C(c1cccc(O)c1)C(O)c1cccc(O)c1` (configuration not stated) came in with a melting point of 159 to 162 °C.

`CC(C)NC1=NS(=O)(=O)c2ccc(CC(N)=O)cc2N1` showed a melting point of 321 to 325 °C.

The compound `O=Cc1nn(-c2c(Cl)cc(C(F)(F)F)cc2Cl)cc1SC(F)(F)F` displayed a melting point of 79 to 81 °C.

`CCCC(Cl)COC(=O)c1ccc(-c2ccc(-c3ccc(C(=O)OCC(Cl)CCC)cc3)cc2)cc1` (configuration not stated) had a melting point of 129 to 131 °C.

With `CN1CCN(c2cc3c(Br)cccc3c(=O)[nH]2)CC1`, the melting point was in the range of 240 to 241 °C.

In turn, `CC(=O)N1CCN(c2c(C)c(C)c3c(c2C)C(c2ccc(C)cc2)C(C)(C)O3)CC1` (configuration not stated) had a melting point of 272 to 274 °C.

`Cn1c(=O)[nH]c(N)c(NCc2ccccc2)c1=O` showed a melting point of 206 to 218 °C.

`CC(C)c1ccc(Oc2ccc(C(=O)C=CC(=O)O)cc2)cc1` registered a melting point of 133 to 134 °C.

On to `N#Cc1csc(N2C(=O)C(Cc3ccccc3)NC2=S)n1` (configuration not stated), for which the melting point lay within 214 to 216 °C.

Consider `CCNc1c([N+](=O)[O-])cc2c(=O)c(C(=O)O)cn(-c3cc(N)c(F)cc3F)c2c1C`, for which the melting point fell in the range of 250 to 254 °C.

As to `CCCCOc1c(N)c(=O)c1=O`, the melting point lay within 166 to 168 °C.

On to `CCCCCCCCCCCC(=O)OC(OC(=O)N1CCN(c2cc3c(cc2F)c(=O)c(C(=O)O)cn3CC)CC1)C(=O)OC(C)C` (configuration not stated), for which the melting point was in the range of 106 to 109 °C.

For `COc1ccc(C(=O)Nc2ccc(CN3C(=O)[C@H]4CCC[C@H]4N(C(=O)CN4C(=O)c5ccccc5C4=O)c4ccccc43)cc2)cc1` (relative stereo), the melting point lay in the range of 170 to 173 °C.

Take `O=C(NC1CCCCC1)NS(=O)(=O)c1ccc(CCn2cnc3ccccc3c2=O)cc1`: the melting point is 228 to 230 °C.

`N#Cc1ncn2c1[C@@H]1CCCN1C(=O)c1ccccc1-2` gave a melting point of 223 to 225 °C.

In the case of `CS(=O)(=O)c1ccc(C(CC2CCCC2)C(=O)Nc2ccc(Br)cn2)cc1Br` (configuration not stated), the melting point was 83 to 86 °C.

In turn, `CN1CC=C(c2cccc3ccc(O)cc23)CC1` yielded a melting point of 182 to 184 °C.

Compound `COc1cc2nc(N)nc(-c3cc(I)c(O)c(I)c3)c2cc1OC` displayed a melting point of 259 to 260 °C.

With `Cc1cccc(C(=O)Nc2c[nH]nc2C(=O)NCCCOC(C)C)n1`, the melting point lay within 169 to 170 °C.

For the compound `O=c1[nH]c2ccccc2n1CCN1CCCCC1`, the melting point was 123 to 125 °C.

`CCOC(=O)c1cnn2c1c(N1CCN(C)CC1)nc1ccccc12` gave a melting point of 234 to 236 °C.

For `O=C(O)C(c1ccc2c(c1)OCO2)n1nc(C2CC2)cc(-c2ccccc2)c1=O` (configuration not stated), the melting point was determined as 176 °C.

On to `Cc1nc(-c2ccc(Cl)cc2Cl)c(Br)n1C(F)F`, for which the melting point was in the range of 81 to 83 °C.

As to `CN1CCN(c2ccc(Nc3ncc4ccc(-c5ccccc5OCC#N)n4n3)cc2)CC1`, the melting point was 95 to 101 °C.

Regarding `O=C1c2cccc(NC(=S)Nc3ccccn3)c2C2CC3(CCN12)SCCS3` (configuration not stated), the melting point came out at 142 °C.

For the compound `O=C(c1ccc(F)c(Cl)c1)N1CCC(F)(CNCc2ccc(CF)cn2)CC1`, the melting point lay within 157 to 159 °C.

`CC[C@H](C)[C@H](NS(=O)(=O)c1ccc(C)cc1)C(=O)N[C@H](CO)Cc1c[nH]c2ccccc12` had a melting point of 217 to 219 °C.

For the compound `CC(C)[C@H](NC(=O)OCc1ccccc1)C(=O)N[C@@H](C(C)C)[C@@H](O)c1c(-c2ccccc2)c1=O`, the melting point was in the range of 63 to 71 °C.

For `C=Cc1c(F)c(F)cc2c(=O)c(C(=O)OCC)cn(C3CC3)c12`, the melting point was in the range of 178 to 179 °C.

In turn, `O=C(CCc1nnc(Nc2ccccc2Cl)o1)NC1CCN(Cc2ccc(Cl)c(Cl)c2)CC1` gave a melting point of 154 to 156 °C.

As to `CN(C)CC(=O)N1CCN(Cc2ccc3c(c2)Cc2c(-c4cccs4)n[nH]c2-3)CC1`, the melting point was in the range of 193 to 197 °C.

For the compound `CC(C)(C)N(O)CC(O)c1cc(F)c(N)c(Br)c1` (configuration not stated), the melting point lay in the range of 122 to 125 °C.

In the case of `O=C(O)c1ccc(CNC(=O)C(CS)Cc2ccccc2)cc1` (configuration not stated), the melting point lay in the range of 156 to 159 °C.

As for `N#Cc1c(Br)c(Br)n(O)c1-c1ccc(Cl)cc1`, the melting point was in the range of 208 to 209 °C.

`CC1(C)CCC(S)(CCOC(=O)CCC(=O)O)CC1` returned a melting point of 55 to 60 °C.

For `Cc1ccc(C(=O)NCCO)cc1-n1c(C)cc(OCc2ccccc2CNC(=O)Nc2cc(C(C)(C)C)nn2-c2ccc(O)c(Cl)c2)c(Cl)c1=O`, the melting point was in the range of 195 to 196 °C.

In turn, `CC(=O)SCC(C(=O)NCCc1nnn[nH]1)C(F)(F)F` (configuration not stated) displayed a melting point of 157 to 160 °C.

`CCOC(=O)c1cnc2sc(-c3ccc([N+](=O)[O-])cc3)c(C)c2c1O`: the melting point lay in the range of 260 to 261 °C.

As for `CC(c1ccccc1)C(Br)C(=O)c1ccccc1` (configuration not stated), the melting point was 69 to 71 °C.

`CCCCOc1n[nH]c(=O)n1C` displayed a melting point of 77 °C.

On to `FC(F)Oc1cccc(C=C2c3ccccc3CCc3ccccc32)c1`, for which the melting point came to 91.3 °C.

As for `CC(C)=CC(=O)Nc1ccc(F)cc1CCN1CCN(c2nsc3ccccc23)CC1`, the melting point is 175 °C.

Turning to `CCCCCCCCCCCCC(Oc1ccc(O)c(C(C)(C)C)c1)C(=O)OCC` (configuration not stated), the melting point is 45 to 48 °C.

`N#CCC=Cc1ccc(Cc2ccc(C=CCC#N)cc2)cc1` registered a melting point of 128 to 130 °C.

Compound `CC(C)(C)OC(=O)Nc1cc(COC2CCCCO2)c(-c2ccc(F)cc2)cc1N` (configuration not stated) gave a melting point of 139 to 142 °C.

Compound `CCNc1nc(SC)ncc1C=Nc1cc(OC)cc(OC)c1` registered a melting point of 100 to 105 °C.

Consider `COc1ccc(-c2nccc3c(C)cccc23)cc1`, for which the melting point fell in the range of 60.4 to 60.8 °C.

`COC(=O)c1c2cccccc-2c(-c2ccccc2)c1-c1ccc(S(C)(=O)=O)cc1` registered a melting point of 98 to 100 °C.

In the case of `COC(=O)CN1C(=S)C(C(C)C)Sc2ccccc21` (configuration not stated), the melting point lay in the range of 99 to 100 °C.

`COc1cccc(C(=O)O)c1OCCN1CCC(c2cn(Cc3ccoc3)c3cnccc23)CC1` displayed a melting point of 303 to 304 °C.

Consider `CCCC=Cc1c(C(C)C)nc(C(C)C)c(C(=O)OCC)c1-c1ccc(CC)cc1`, for which the melting point lay in the range of 67 to 68 °C.

For `Cc1ccc(-c2cc(C(F)(F)F)n3ncc(C#N)c3n2)cc1`, the melting point was found to be 121 °C.

`CS(=O)c1ncc2ccc(=O)n(-c3ccccc3)c2n1` (configuration not stated) had a melting point of 248 to 250 °C.

For `NC1N=C(Cl)C=C(Cl)N1c1c([N+](=O)[O-])cc(C(F)(F)F)c(Cl)c1[N+](=O)[O-]` (configuration not stated), the melting point lay within 199 to 200 °C.

Take `COC(=O)C1=C(C)NC(C)=C(C(=O)OCC2CCCO2)C1c1cccc(C#N)c1` (configuration not stated): the melting point was 127 to 129 °C.

`Cc1ccc(S(=O)(=O)N2CCC(NC(=O)Nc3ccc(OC(F)(F)F)cc3)CC2)cc1` yielded a melting point of 205 to 207 °C.

With `NC(=O)c1csnc1-c1cccc(C(F)(F)F)c1`, the melting point lay in the range of 141 to 142 °C.

The compound `COc1ccc2nc3c(c(Cl)c2c1)C(=O)c1ccccc1-3` came in with a melting point of 232 to 234 °C.

`NS(=O)(=O)c1cccc(-c2noc(-c3cnc4c(C(F)(F)F)cc(-c5ccc(C(F)(F)F)cc5)cn34)n2)c1` displayed a melting point of 297 °C.

`O=c1c(CCCCO)c(O)c2cccnc2n1-c1ccccc1` came in with a melting point of 206 °C.

As to `S=C=Nc1ccc(Nc2ccncc2)cc1`, the melting point lay within 195 to 196 °C.

`Cc1nnc(-c2nnc(SCCC(F)=C(F)F)o2)o1` yielded a melting point of 77 to 79 °C.

As to `CNc1ccc(Cl)c(C(=O)Nc2cccc3c4c(oc23)CCCC4)c1Cl`, the melting point lay in the range of 160 to 162 °C.

`COc1cc(C)c2cc(C(=O)c3ccc(C(=O)O)cc3)ccc2c1C`: the melting point came out at 240 °C.

On to `CC1(C)Cc2cc(Br)cc(O)c2O1`, for which the melting point worked out at 70 °C.

Consider `Cc1[nH]cnc1CNC(=N)NC#N`, for which the melting point lay in the range of 216 to 221 °C.

With `CC(=NNC(=O)c1cccc(C)c1)c1cc(Cl)cc(Cl)c1O`, the melting point was 221 to 223 °C.
